Molecular target: T1, catechol-O-methyltransferase (COMT) (Homo sapiens, UniProt P21964)
T1 construct: M51A variant) was expressed in HEK 293F cells
T1 sequence (P21964 52-271 limits assumed): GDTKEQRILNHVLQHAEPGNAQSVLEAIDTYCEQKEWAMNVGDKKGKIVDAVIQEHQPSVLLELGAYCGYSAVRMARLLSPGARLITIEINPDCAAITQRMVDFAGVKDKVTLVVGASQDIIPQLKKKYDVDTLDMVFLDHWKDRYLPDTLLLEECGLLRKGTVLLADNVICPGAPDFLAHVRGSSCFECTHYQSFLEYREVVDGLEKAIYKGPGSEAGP
Test: COMT inhibition assay (HTRF, production of SAH from SAM)
Format: biochemical
Conditions: table does not say MB-COMT or S-COMT
Experimental: The ability of compounds to inhibit the activity of catechol-O-methyltransferase (COMT) was determined by a homogenous time-resolved fluorescent (HTRF) assay (Lina et al, 2012; kit from CisBio, Codolet, France). This assay measures the production of S-adenosyl homocysteine (SAH) from the methyl donor S-adenosyl methionine. Recombinant human membrane bound COMT (MB-COMT; M51A variant) was expressed in HEK 293F cells using 293Fectin (Life Technologies, Gent, Belgium) and membranes prepared. The membranes were re-suspended in buffer (20 mM Tris/HCl pH 7; 10 mM glycerol; 2 mM MgCl2; 10 mM NaCl), aliquoted and stored at −80° C. Recombinant human soluble COMT(S-COMT), Val158 variant and a hexa-His tag on the N-terminus, was purified using Ni-NTA chromatography, the His tag removed and stored in buffer as above.
For the human MB-COMT assay, membranes (62 ng/well) were incubated with SAM (20 μM final, CisBio) and dopamine (1.5 μM final; Sigma H8502, Diegem, Belgium) in the presence or absence of varying concentrations (typically 10 concentrations ranging from 10 ? M to 0.1 nM) of compound for 40 min at 37° C. in 384-well microtiter plates (10 ? l per well final volume). The reaction was terminated by the addition of acylation buffer and the amount of SAH produced determined according to manufacturer's instructions. Specific inhibition as that inhibited by a high concentration of tolcapone and all experiments were validated using a control curve to tolcapone.
The human S-COMT assay was performed as above except that 0.15 ng enzyme/well was incubated with SAM ([…]) and dopamine (100 μM final) for 15 min at 37° C. and SAH production determined.
HTRF readings were performed using a Perkin Elmer Envision and results expressed as concentration of SAH produced using a standard curve. Results were analyzed using non-linear regression to the 4-parameter logistic equation and pIC50 (−log 10 concentration of drug which inhibits enzyme activity/SAH production by 50%) determined.

SMILES	Activity range (pIC50)
CCc1ccc(CN2CCn3cc(O)c(=O)cc3[C@H]2c2ccccc2)cc1 (single isomer, unassigned) [Example 118]	+++ (three plus signs (+++) is associated with a pIC50 of above about 7)
CCc1ccc(CN2CCn3cc(O)c(=O)cc3[C@@H]2c2ccccc2)cc1 (single isomer, unassigned) [Example 119]	+++ (three plus signs (+++) is associated with a pIC50 of above about 7)
O=c1cc2n(cc1O)CCN(Cc1ccccc1)C2 [Example 1, 2-benzyl-7-hydroxy-1,2,3,4-tetrahydro-8H-pyrido[1,2-a]pyrazin-8-one]	++ (two plus signs (++) is associated with a pIC50 of from about 6 to 7)
O=c1cc2n(cc1O)CCN(Cc1ccc(C(F)(F)F)cc1)C2 [Example 2, 7-hydroxy-2-[4-(trifluoromethyl)benzyl]-1,2,3,4-tetrahydro-8H-pyrido[1,2-a]pyrazin-8-one]	++ (two plus signs (++) is associated with a pIC50 of from about 6 to 7)
O=c1cc2n(cc1O)CCN(Cc1ccc(F)cc1)C2 [Example 3, 2-[(4-fluorophenyl)methyl]-7-hydroxy-3,4-dihydro-1H-pyrido[1,2-a]pyrazin-8-one]	+ (a single plus (+) is associated with a pIC50 of from about 4.5 to 6)
O=c1cc2n(cc1O)CCN(CCn1nnc3ccccc31)C2 [Example 4, 2-[2-(benzotriazol-1-yl)ethyl]-7-hydroxy-3,4-dihydro-1H-pyrido[1,2-a]pyrazin-8-one]	+ (a single plus (+) is associated with a pIC50 of from about 4.5 to 6)
O=c1cc2n(cc1O)CCN(CCn1nc3ccccc3n1)C2 [Example 5, 2-[2-(benzotriazol-2-yl)ethyl]-7-hydroxy-3,4-dihydro-1H-pyrido[1,2-a]pyrazin-8-one]	+ (a single plus (+) is associated with a pIC50 of from about 4.5 to 6)
O=c1cc2n(cc1O)CCN(Cc1cccc(OC(F)(F)F)c1)C2 [Example 6, 7-hydroxy-2-[3-(trifluoromethoxy)benzyl]-1,2,3,4-tetrahydro-8H-pyrido[1,2-a]pyrazin-8-one]	+++ (three plus signs (+++) is associated with a pIC50 of above about 7)
CC(C)(C)c1ccc(CN2CCn3cc(O)c(=O)cc3C2)cc1 [Example 7, 2-(4-tert-butylbenzyl)-7-hydroxy-1,2,3,4-tetrahydro-8H-pyrido[1,2-a]pyrazin-8-one]	+++ (three plus signs (+++) is associated with a pIC50 of above about 7)
O=c1cc2n(cc1O)CCN(Cc1ccc(OC(F)(F)F)cc1)C2 [Example 8, 7-hydroxy-2-[4-(trifluoromethoxy)benzyl]-1,2,3,4-tetrahydro-8H-pyrido[1,2-a]pyrazin-8-one]	+++ (three plus signs (+++) is associated with a pIC50 of above about 7)
Cc1ccc(CN2CCn3cc(O)c(=O)cc3C2)c(C)c1 [Example 9, 2-(2,4-dimethylbenzyl)-7-hydroxy-1,2,3,4-tetrahydro-8H-pyrido[1,2-a]pyrazin-8-one]	+++ (three plus signs (+++) is associated with a pIC50 of above about 7)
CC(C)c1ccc(CN2CCn3cc(O)c(=O)cc3C2)cc1 [Example 10, 7-hydroxy-2-[4-(propan-2-yl)benzyl]-1,2,3,4-tetrahydro-8H-pyrido[1,2-a]pyrazin-8-one]	+++ (three plus signs (+++) is associated with a pIC50 of above about 7)
O=c1cc2n(cc1O)CCN(Cc1ccccn1)C2 [Example 11, 7-hydroxy-2-(pyridin-2-ylmethyl)-1,2,3,4-tetrahydro-8H-pyrido[1,2-a]pyrazin-8-one]	++ (two plus signs (++) is associated with a pIC50 of from about 6 to 7)
O=c1cc2n(cc1O)CCN(Cc1ccc(-c3cccnc3)cc1)C2 [Example 12, 7-hydroxy-2-[4-(pyridin-3-yl)benzyl]-1,2,3,4-tetrahydro-8H-pyrido[1,2-a]pyrazin-8-one]	++ (two plus signs (++) is associated with a pIC50 of from about 6 to 7)
CCc1ccc(CN2CCn3cc(O)c(=O)cc3C2)cc1 [Example 13, 2-(4-ethylbenzyl)-7-hydroxy-1,2,3,4-tetrahydro-8H-pyrido[1,2-a]pyrazin-8-one]	+++ (three plus signs (+++) is associated with a pIC50 of above about 7)
O=c1cc2n(cc1O)CCN(Cc1cccc3cccnc13)C2 [Example 14, 7-hydroxy-2-(quinolin-8-ylmethyl)-1,2,3,4-tetrahydro-8H-pyrido[1,2-a]pyrazin-8-one]	+++ (three plus signs (+++) is associated with a pIC50 of above about 7)
CC(c1ccccc1)N1CCn2cc(O)c(=O)cc2C1 (centres unmarked) [Example 15, 7-hydroxy-2-(1-phenylethyl)-1,2,3,4-tetrahydro-8H-pyrido[1,2-a]pyrazin-8-one]	++ (two plus signs (++) is associated with a pIC50 of from about 6 to 7)
CCc1ccc(C(C)N2CCn3cc(O)c(=O)cc3C2)cc1 (centres unmarked) [Example 16, 2-[1-(4-ethylphenyl)ethyl]-7-hydroxy-1,2,3,4-tetrahydro-8H-pyrido[1,2-a]pyrazin-8-one]	+++ (three plus signs (+++) is associated with a pIC50 of above about 7)
N#Cc1ccccc1CN1CCn2cc(O)c(=O)cc2C1 [Example 17, 2-[(7-hydroxy-8-oxo-1,3,4,8-tetrahydro-2H-pyrido[1,2-a]pyrazin-2-yl)methyl]benzonitrile]	++ (two plus signs (++) is associated with a pIC50 of from about 6 to 7)
CCc1ccc(CN2CCn3cc(O)c(=O)cc3C2)cc1[N+](=O)[O-] [Example 18, 2-(4-ethyl-3-nitrobenzyl)-7-hydroxy-1,2,3,4-tetrahydro-8H-pyrido[1,2-a]pyrazin-8-one]	+++ (three plus signs (+++) is associated with a pIC50 of above about 7)
O=c1cc2n(cc1O)CCN(CC(c1ccccc1)c1ccccc1)C2 [Example 19, 2-(2,2-diphenylethyl)-7-hydroxy-1,2,3,4-tetrahydro-8H-pyrido[1,2-a]pyrazin-8-one]	++ (two plus signs (++) is associated with a pIC50 of from about 6 to 7)
CCC(CC)CN1CCn2cc(O)c(=O)cc2C1 [Example 20, 2-(2-ethylbutyl)-7-hydroxy-1,2,3,4-tetrahydro-8H-pyrido[1,2-a]pyrazin-8-one]	++ (two plus signs (++) is associated with a pIC50 of from about 6 to 7)
O=c1cc2n(cc1O)CCN(Cc1cc(Cl)cc(Cl)c1)C2 [Example 21, 2-(3,5-dichlorobenzyl)-7-hydroxy-1,2,3,4-tetrahydro-8H-pyrido[1,2-a]pyrazin-8-one]	+++ (three plus signs (+++) is associated with a pIC50 of above about 7)
O=c1cc2n(cc1O)CCN(CC1CCCCC1)C2 [Example 22, 2-(cyclohexylmethyl)-7-hydroxy-1,2,3,4-tetrahydro-8H-pyrido[1,2-a]pyrazin-8-one]	++ (two plus signs (++) is associated with a pIC50 of from about 6 to 7)
O=c1cc2n(cc1O)CCN(Cc1ccc(C3CC3)cc1)C2 [Example 23, 2-(4-cyclopropylbenzyl)-7-hydroxy-1,2,3,4-tetrahydro-8H-pyrido[1,2-a]pyrazin-8-one]	+++ (three plus signs (+++) is associated with a pIC50 of above about 7)
CC1(C)CCCC2=C1CC(CN1CCn3cc(O)c(=O)cc3C1)CC2 (centres unmarked) [Example 24, 2-[(8,8-dimethyl-1,2,3,4,5,6,7,8-octahydronaphthalen-2-yl)methyl]-7-hydroxy-1,2,3,4-tetrahydro-8H-pyrido[1,2-a]pyrazin-8-one]	+++ (three plus signs (+++) is associated with a pIC50 of above about 7)
O=c1cc2n(cc1O)CCN(Cc1ccc(Cl)c(Cl)c1)C2 [Example 25, 2-(3,4-dichlorobenzyl)-7-hydroxy-1,2,3,4-tetrahydro-8H-pyrido[1,2-a]pyrazin-8-one]	+++ (three plus signs (+++) is associated with a pIC50 of above about 7)
O=c1cc2n(cc1O)CCN(CC1CCCCCCC1)C2 [Example 26, 2-(cyclooctylmethyl)-7-hydroxy-1,2,3,4-tetrahydro-8H-pyrido[1,2-a]pyrazin-8-one]	++ (two plus signs (++) is associated with a pIC50 of from about 6 to 7)
Cc1cccc(C)c1CN1CCn2cc(O)c(=O)cc2C1 [Example 27, 2-(2,6-dimethylbenzyl)-7-hydroxy-1,2,3,4-tetrahydro-8H-pyrido[1,2-a]pyrazin-8-one]	+++ (three plus signs (+++) is associated with a pIC50 of above about 7)
